In patent US9260429B2, “Pyrido[3,4-B]indoles and methods of use” (Medivation Technologies, Inc., priority 2008, dated 2016):
Read-outs that look alike come from different tables or passages of the source.

Assays:
[1] = target: T1, human recombinant histamine H1 receptor (Homo sapiens, UniProt P35367); experiment: Histamine H1 radioligand binding ([3H]Pyrilamine); settings: for inhibition at 0.3 µM: compound concentration 0.3 μM
T1 construct: expressed in transfected cells; host or cells: CHO cells
T1 sequence (P35367 whole entry): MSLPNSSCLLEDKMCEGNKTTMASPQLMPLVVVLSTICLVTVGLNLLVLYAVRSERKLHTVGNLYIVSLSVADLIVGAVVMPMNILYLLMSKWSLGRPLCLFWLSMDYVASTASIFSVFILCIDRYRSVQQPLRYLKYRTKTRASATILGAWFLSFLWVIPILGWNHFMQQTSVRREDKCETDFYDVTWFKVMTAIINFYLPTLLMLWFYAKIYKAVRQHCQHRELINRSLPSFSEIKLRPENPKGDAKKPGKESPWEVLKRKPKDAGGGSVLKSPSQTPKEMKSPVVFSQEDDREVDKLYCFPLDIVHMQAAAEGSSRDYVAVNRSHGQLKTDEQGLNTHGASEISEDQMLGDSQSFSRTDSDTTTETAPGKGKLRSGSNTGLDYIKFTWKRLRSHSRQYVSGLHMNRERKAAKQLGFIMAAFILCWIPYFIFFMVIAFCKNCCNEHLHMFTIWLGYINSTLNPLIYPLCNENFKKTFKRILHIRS
Outline: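 Binding to the human recombinant histamine H1 receptor, expressed in CHO cells, was measured in a modified Tris-HCl buffer (50 mM Tris-HCl, pH 7.4, 2 mM MgCl2, 100 mM NaCl, 250 mM Sucrose). Compounds were incubated with 1.2 nM [3H]Pyrilamine for 180 minutes at 25° C, with 1 μM pyrilamine defining non-specific binding. After filtration and washing, filter counts gave percent inhibition of specific binding.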

[2] = target: T2, human recombinant adrenergic α2A receptor (Homo sapiens, UniProt P08913); experiment: Adrenergic α2A radioligand binding ([3H]MK-912)
T2 construct: expressed in transfected cells; host or cells: insect Sf9 cells
T2 sequence (P08913 1-465): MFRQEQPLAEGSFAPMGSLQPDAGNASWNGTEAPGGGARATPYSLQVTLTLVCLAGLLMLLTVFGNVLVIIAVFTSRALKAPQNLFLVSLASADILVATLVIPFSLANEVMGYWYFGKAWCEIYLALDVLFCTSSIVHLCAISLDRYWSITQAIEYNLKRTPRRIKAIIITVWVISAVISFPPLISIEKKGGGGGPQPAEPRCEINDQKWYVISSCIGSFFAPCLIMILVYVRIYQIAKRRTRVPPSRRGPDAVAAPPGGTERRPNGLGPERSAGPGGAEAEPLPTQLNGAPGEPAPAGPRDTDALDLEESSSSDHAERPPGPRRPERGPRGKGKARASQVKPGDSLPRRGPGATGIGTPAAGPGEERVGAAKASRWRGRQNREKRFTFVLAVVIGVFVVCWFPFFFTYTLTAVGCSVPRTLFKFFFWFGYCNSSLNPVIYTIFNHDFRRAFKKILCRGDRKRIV
Procedure: To evaluate in radioligand binding assays the activity of compounds of the invention, human recombinant adrenergic α2A receptor expressed in insect Sf9 cells (Uhlen S et al. J Pharmacol Exp Ther. 271:1558, 1994) in a modified Tris-HCl buffer (50 mM Tris-HCl, pH 7.4, 12.5 mM MgCl2, 2 mM EDTA) was used. Compounds of invention were incubated with 1 nM [^3H]MK-912 for 60 minutes at 25° C. MK912 is (2S-trans)-1,3,4,5′,6,6′,7,12b-octahydro-1′,3′-dimethyl-spiro[2H-benzofuro[2,3-a]quinolizine-2,4′(1′H)-pyrimidin]-2′(3′H)-one hydrochloride Non-specific binding was estimated in the presence of 10 μM WB-4101 (2-(2,6-Dimethoxyphenoxyethyl)aminomethyl-1,4-benzodioxane hydrochloride). Receptor proteins were filtered and washed, the filters were then counted to determine [^3H]MK-912 specifically bound. Compounds were screened at 1 μM or lower, using 1% DMSO as vehicle. Biochemical assay results are presented as the percent inhibition of specific binding in Table 4.

[3] = target: T3, human recombinant serotonin (5-Hydroxytryptamine) 5-HT2A receptor (Homo sapiens, UniProt P28223); experiment: Serotonin 5-HT2A radioligand binding ([3H]Ketanserin); settings: for inhibition at 0.01 µM: compound concentration 10 nM; for inhibition at 0.03 µM: compound concentration 0.03 μM; for inhibition at 0.1 µM: compound concentration 0.1 μM; for inhibition at 0.3 µM: compound concentration 0.3 μM
T3 construct: expressed in transfected cells; host or cells: CHO-K1 cells
T3 sequence (P28223 whole entry): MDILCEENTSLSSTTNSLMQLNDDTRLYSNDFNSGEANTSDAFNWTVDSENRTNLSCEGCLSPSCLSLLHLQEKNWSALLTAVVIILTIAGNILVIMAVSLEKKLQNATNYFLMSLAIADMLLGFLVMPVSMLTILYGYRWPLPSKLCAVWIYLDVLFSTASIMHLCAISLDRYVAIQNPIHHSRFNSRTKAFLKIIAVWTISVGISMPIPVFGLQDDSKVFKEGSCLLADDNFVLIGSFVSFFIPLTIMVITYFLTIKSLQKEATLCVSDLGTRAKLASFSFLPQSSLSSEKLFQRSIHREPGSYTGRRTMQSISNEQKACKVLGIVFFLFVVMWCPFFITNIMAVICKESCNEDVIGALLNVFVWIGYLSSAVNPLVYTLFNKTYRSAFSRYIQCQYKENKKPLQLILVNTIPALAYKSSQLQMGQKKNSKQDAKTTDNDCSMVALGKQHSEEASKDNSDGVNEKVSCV
Outline: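 Membranes from CHO-K1 cells expressing the receptor, in 50 mM Tris-HCl pH 7.4, incubated 60 min at 25° C with 0.5 nM [3H]Ketanserin; 1 μM Mianserin defines non-specific binding. Filtration and counting; values are % inhibition of specific binding at 1 μM or lower, 1% DMSO.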

[4] = target: T4, human recombinant serotonin (5-Hydroxytryptamine) 5-HT6 receptor (Homo sapiens, UniProt P50406); experiment: Serotonin 5-HT6 radioligand binding ([3H]LSD); settings: for inhibition at 0.01 µM: compound concentration 10 nM; for inhibition at 0.03 µM: compound concentration 0.03 μM; for inhibition at 0.1 µM: compound concentration 0.1 μM; for inhibition at 0.3 µM: compound concentration 0.3 μM
T4 construct: expressed in transfected cells; host or cells: human HeLa cells
T4 sequence (P50406 whole entry): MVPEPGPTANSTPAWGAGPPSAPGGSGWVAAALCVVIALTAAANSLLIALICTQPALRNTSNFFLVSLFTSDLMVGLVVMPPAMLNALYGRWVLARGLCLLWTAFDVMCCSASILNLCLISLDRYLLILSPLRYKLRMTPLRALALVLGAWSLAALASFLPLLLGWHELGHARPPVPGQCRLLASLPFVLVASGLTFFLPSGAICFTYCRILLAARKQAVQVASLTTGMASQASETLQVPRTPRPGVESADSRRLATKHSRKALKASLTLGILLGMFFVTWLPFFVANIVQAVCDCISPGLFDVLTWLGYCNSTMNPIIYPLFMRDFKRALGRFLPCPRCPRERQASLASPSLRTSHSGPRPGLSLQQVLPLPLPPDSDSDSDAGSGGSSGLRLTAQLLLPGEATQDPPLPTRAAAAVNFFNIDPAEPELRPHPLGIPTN
Outline: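 Human 5-HT6 receptor expressed in HeLa cells, in Tris-HCl pH 7.4 with 150 mM NaCl, ascorbic acid and BSA. Compounds at 1 μM or lower (1% DMSO) incubated 120 min at 37° C with 1.5 nM [3H]LSD. Non-specific binding defined with serotonin; filter counting gives % inhibition of specific binding.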

[5] = 1 μM, read-out: Binding data (Percentage Inhibition) Histamine Binding (1 μM) H1
[6] = read-out: Percentage inhibition of ligand binding to H1 receptor
[7] = compound concentration 1 μM, read-out: Percentage inhibition of ligand binding to H1 receptor
[8] = 1 h, read-out: Percent Inhibition of ligand binding Adrenergic (1 μM ligand conc.) α2A
[9] = compound concentration 1 μM, read-out: Percentage inhibition of ligand binding to Adrenergic α2A receptor
[10] = 1 h, read-out: Percent Inhibition of ligand binding Serotonin (1 μM ligand concentration) 5-HT2A
[11] = read-out: Percentage inhibition of ligand binding to 5-HT2A receptor
[12] = compound concentration 1 μM, read-out: Percentage inhibition of ligand binding to 5-HT2A receptor
[13] = 2 h, read-out: Percent Inhibition of ligand binding Serotonin (1 μM ligand concentration) 5-HT6
[14] = read-out: Percentage inhibition of ligand binding to 5-HT6 receptor
[15] = compound concentration 1 μM, read-out: Percentage inhibition of ligand binding to 5-HT6 receptor

| Compound | inhibition at 1 µM [1, 5] | inhibition at 1 µM [2, 8] | inhibition at 1 µM [3, 10] | inhibition at 1 µM [4, 13] | also measured |
| --- | --- | --- | --- | --- | --- |
| Cc1ccc2c(c1)c1c(n2/C=C/c2ccccc2)CN(C)CC1 [Compound 92] | 99% | 96% | 97% | 96% | inhibition at 0.03 µM ([1]; compound concentration 0.03 μM, read-out: Percentage inhibition of ligand binding to H1 receptor): 67%; inhibition at 0.1 µM ([1]; compound concentration 0.1 μM, read-out: Percentage inhibition of ligand binding to H1 receptor): 91%; inhibition at 0.3 µM [1, 6]: 96%; inhibition at 1 µM [1, 7]: 99%; inhibition at 1 µM [2, 9]: 96%; inhibition at 0.01 µM [3, 11]: 13%; inhibition at 0.03 µM [3, 11]: 37%; inhibition at 0.1 µM [3, 11]: 65%; inhibition at 0.3 µM [3, 11]: 83%; inhibition at 1 µM [3, 12]: 97%; inhibition at 0.01 µM [4, 14]: 14%; inhibition at 0.03 µM [4, 14]: 28%; inhibition at 0.1 µM [4, 14]: 60%; inhibition at 0.3 µM [4, 14]: 81%; inhibition at 1 µM [4, 15]: 96% |
| C/C(=C\n1c2c(c3cc(C)ccc31)CCN(C)C2)c1ccc(Cl)cc1 [Compound 97, 9-(2-(4-chlorophenyl)prop-1-enyl)-2,6-dimethyl-2,3,4,9-tetrahydro-1H-pyrido[3,4-b]indole] | 20% | 91% | 97% | 72% | – |
| C/C(=C\n1c2c(c3cc(Cl)ccc31)CCN(C)C2)c1ccc(Cl)cc1 [Compound 98, 6-chloro-9-(2-(4-chlorophenyl)prop-1-enyl)-2-methyl-2,3,4,9-tetrahydro-1H-pyrido[3,4-b]indole] | 40% | 74% | 98% | 79% | – |
| C/C(=C\n1c2c(c3cc(Cl)ccc31)CCN(C)C2C)c1ccc(Cl)cc1 (centres unmarked) [Compound 99, 6-chloro-9-(2-(4-chlorophenyl)prop-1-enyl)-1,2-dimethyl-2,3,4,9-tetrahydro-1H-pyrido[3,4-b]indole] | 65% | 59% | 86% | 69% | – |
| CCC1c2c(c3cc(Cl)ccc3n2/C=C(\C)c2ccc(Cl)cc2)CCN1C (centres unmarked) [Compound 100, 6-chloro-9-(2-(4-chlorophenyl)prop-1-enyl)-1-ethyl-2-methyl-2,3,4,9-tetrahydro-1H-pyrido[3,4-b]indole] | 33% | 56% | 87% | 23% | – |
| CC1c2c(c3cc(Cl)ccc3n2C#Cc2ccc(F)cc2)CCN1C (centres unmarked) [Compound 128] | 32% | 81% | 95% | 90% | – |
| CCC1c2c(c3cc(Cl)ccc3n2C#Cc2ccc(F)cc2)CCN1C (centres unmarked) [Compound 129] | 8% | 75% | 85% | 22% | – |
| CC1c2c(c3cc(Cl)ccc3n2C#Cc2ccc(Cl)cc2)CCN1C (centres unmarked) [Compound 132, 6-chloro-9-((4-chlorophenyl)ethynyl)-1,2-dimethyl-2,3,4,9-tetrahydro-1H-pyrido[3,4-b]indole] | 14% | 13% | 80% | 17% | – |
| CCC1c2c(c3cc(C)ccc3n2C(=O)Cc2ccc(F)cc2)CCN1C (centres unmarked) [Compound 159] | 5% | 71% | 89% | 46% | – |
| CCC1c2c(c3cc(C)ccc3n2/C=C(\C)c2ccc(Cl)cc2)CCN1C (centres unmarked) [Compound 160, 9-(2-(4-chlorophenyl)prop-1-enyl)-1-ethyl-2,6-dimethyl-2,3,4,9-tetrahydro-1H-pyrido[3,4-b]indole] | 31% | 51% | 95% | 24% | – |
| C/C(=C\n1c2c(c3cc(C)ccc31)CCN(C)C2C)c1ccc(Cl)cc1 (centres unmarked) [Compound 161, 9-(2-(4-chlorophenyl)prop-1-enyl)-1,2,6-trimethyl-2,3,4,9-tetrahydro-1H-pyrido[3,4-b]indole] | 51% | 52% | 96% | 75% | – |
| CCC1c2c(c3cc(C)ccc3n2C#Cc2ccc(Cl)cc2)CCN1C (centres unmarked) [Compound 162, 9-((4-chlorophenyl)ethynyl)-1-ethyl-2,6-dimethyl-2,3,4,9-tetrahydro-1H-pyrido[3,4-b]indole] | 15% | 76% | 98% | 12% | – |
| Cc1ccc2c(c1)c1c(n2C(=O)Cc2ccc(Cl)cc2)C(c2ccccc2)N(C)CC1 (centres unmarked) [Compound 163] | 13% | 96% | 98% | 89% | – |
| C/C(=C\n1c2c(c3cc(C)ccc31)CCN(C)C2c1ccccc1)c1ccc(Cl)cc1 (centres unmarked) [Compound 164, 9-(2-(4-chlorophenyl)prop-1-enyl)-2,6-dimethyl-1-phenyl-2,3,4,9-tetrahydro-1H-pyrido[3,4-b]indole] | 12% | 58% | 95% | 16% | – |
| C/C(=C/n1c2c(c3cc(C)ccc31)CCN(C)C2C)c1ccccc1F (centres unmarked) [Compound 165] | 21% | 86% | 85% | 46% | – |
| C/C(=C\n1c2c(c3cc(C)ccc31)CCN(C)C2C)c1ccccc1F (centres unmarked) [Compound 166] | 79% | 95% | 102% | 95% | inhibition at 0.3 µM [1, 6]: 23%; inhibition at 1 µM [1, 7]: 79%; inhibition at 3 µM ([1]; compound concentration 3 μM, read-out: Percentage inhibition of ligand binding to H1 receptor): 77%; inhibition at 1 µM [2, 9]: 95%; inhibition at 0.01 µM [3, 11]: 15%; inhibition at 0.03 µM [3, 11]: 46%; inhibition at 0.1 µM [3, 11]: 74%; inhibition at 0.3 µM [3, 11]: 81%; inhibition at 1 µM [3, 12]: 102%; inhibition at 0.01 µM [4, 14]: 13%; inhibition at 0.03 µM [4, 14]: 16%; inhibition at 0.1 µM [4, 14]: 38%; inhibition at 0.3 µM [4, 14]: 55%; inhibition at 1 µM [4, 15]: 95% |
| C/C(=C/n1c2c(c3cc(Cl)ccc31)CCN(C)C2C)c1ccccc1F (centres unmarked) [Compound 167] | 64% | 92% | 88% | 55% | – |
| C/C(=C\n1c2c(c3cc(Cl)ccc31)CCN(C)C2C)c1ccccc1F (centres unmarked) [Compound 168] | 85% | 74% | 94% | 71% | – |
